Laboratory results reported in US5472942A, “Anti-thrombins” (priority 1988, dated 1995).

Test system: human blood
Test: Partial thromboplastic time
Conditions: equivalent doses; anti-thrombin of the invention compared with hirudin
Text: The anti-thrombin according to the invention and hirudin do however, have similar partial thromboplastic times for equivalent doses.

## hirudin: thrombin-specific polypeptide of 65 amino acids from Hirudo medicinalis [reference compound]
  partial thromboplastic times: similar
